What was measured:
Danio rerio embryo [1] = assay: spontaneous tail coiling frequency (coils/min/embryo); higher = more spontaneous movement; settings: 25 hpf
Procedure: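 Spontaneous tail coilings of zebrafish embryos exposed from 2 hpf were recorded at 24-25 hpf in 1-min videos and detected by a KNIME workflow from grey-value variance. Betamethasone was tested as the dipropionate, diflorasone as the diacetate.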

Danio rerio embryo [2] = settings: exposure time: 4 dpf
Procedure: (§1)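 Zebrafish embryos (UFZ-OBI strain) were exposed from 2 hpf for 48 h (2 dpf) or 96 h (4 dpf) at 28 °C; spontaneous tail coiling was scored at 25 hpf. Morphological features from automated image analysis (FishInspector), heart rate and locomotor response were fitted with drc models. Quantal endpoints were dichotomised at 2.5 SD from controls and fitted with a log-logistic model; heart rate, pigmentation and STC were normalised to the replicate control mean. Betamethasone was tested as betamethasone dipropionate, diflorasone as diflorasone diacetate.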

Danio rerio embryo [3] = system: Danio rerio embryo
Procedure: as §1

Danio rerio embryo [4] = settings: exposure time: 4 dpf; remark: listed apart in the source
Procedure: as §1

Danio rerio embryo [5] = assay: EC50 Body length_Decrease; settings: exposure time: 2 dpf
Procedure: as §1

Danio rerio embryo [6] = assay: EC50 Bladder size_Decrease; settings: exposure time: 4 dpf
Procedure: as §1

Danio rerio embryo [7] = assay: EC50 Pericard size_Increase; settings: exposure time: 4 dpf
Procedure: as §1

Danio rerio embryo [8] = assay: EC50 Yolk sac size_Increase; settings: exposure time: 4 dpf
Procedure: as §1

Danio rerio embryo [9] = assay: EC50 Eye-jaw distance_Decrease; settings: exposure time: 4 dpf
Procedure: as §1

Danio rerio embryo [10] = assay: EC10 LMR dark; higher = less potent; settings: exposure time: 4 dpf
Procedure: as §1

Danio rerio embryo [11] = assay: EC20 LMR dark; higher = less potent; settings: exposure time: 4 dpf
Procedure: as §1

Danio rerio embryo [12] = assay: EC10 Heart rate; higher = less potent
Procedure: as §1

Danio rerio embryo [13] = assay: EC10 Lack of SB; higher = less potent; settings: exposure time: 4 dpf
Procedure: as §1

Danio rerio embryo [14] = assay: EC20 Lack of SB; higher = less potent; settings: exposure time: 4 dpf
Procedure: as §1

Danio rerio embryo [15] = assay: EC20 Any effect; higher = less potent
Procedure: as §1

Danio rerio embryo [16] = assay: EC10 Any effect; higher = less potent
Procedure: as §1

Danio rerio embryo [17] = assay: EC20 Heart rate; higher = less potent
Procedure: as §1

Danio rerio embryo [18] = assay: EC10 STC decrease; higher = less potent; settings: exposure time: 25 h
Procedure: as §1

Danio rerio embryo [19] = assay: EC20 STC decrease; higher = less potent; settings: exposure time: 25 h
Procedure: as §1

Danio rerio embryo [20] = assay: EC20 Body length_Decrease; higher = less potent; settings: exposure time: 2 dpf
Procedure: as §1

Danio rerio embryo [21] = assay: EC10 Body length_Decrease; higher = less potent; settings: exposure time: 2 dpf
Procedure: as §1

Danio rerio embryo [22] = assay: EC10 Pigmentation increase; higher = less potent; settings: exposure time: 4 dpf
Procedure: as §1

Danio rerio embryo [23] = assay: EC10 Bladder size_Decrease; higher = less potent; settings: exposure time: 4 dpf
Procedure: as §1

Danio rerio embryo [24] = assay: EC20 Pigmentation increase; higher = less potent; settings: exposure time: 4 dpf
Procedure: as §1

Danio rerio embryo [25] = assay: EC20 Bladder size_Decrease; higher = less potent; settings: exposure time: 4 dpf
Procedure: as §1

Danio rerio embryo [26] = assay: EC20 Yolk sac size_Increase; higher = less potent; settings: exposure time: 4 dpf
Procedure: as §1

Danio rerio embryo [27] = assay: EC20 Pericard size_Increase; higher = less potent; settings: exposure time: 4 dpf
Procedure: as §1

Danio rerio embryo [28] = assay: EC10 Yolk sac size_Increase; higher = less potent; settings: exposure time: 4 dpf
Procedure: as §1

Danio rerio embryo [29] = assay: EC10 Pericard size_Increase; higher = less potent; settings: exposure time: 4 dpf
Procedure: as §1

Danio rerio embryo [30] = assay: EC20 Eye-jaw distance_Decrease; higher = less potent; settings: exposure time: 4 dpf
Procedure: as §1

Danio rerio embryo [31] = assay: EC10 Eye-jaw distance_Decrease; higher = less potent; settings: exposure time: 4 dpf
Procedure: as §1

CC(=O)Nc1ccc(O)cc1 [acetaminophen]
Danio rerio embryo [1]
Settings	spontaneous tail coiling frequency
230 µM	2.54
470 µM	1.5
940 µM	2.42
1875 µM	2.5
1876 µM	3.01
3750 µM	3.63
6250 µM	3.44
7500 µM	1.69
15000 µM	0

CNCCC=C1c2ccccc2CCc2ccccc21 [Nortriptyline]
Settings	EC10 Bladder size Decrease [µM]	EC10 Body length Decrease [µM]	EC10 Eye-jaw distance Decrease [µM]	EC10 LMR dark [µM]	EC10 Lack of SB [µM]	EC10 Pericard size Increase [µM]	EC10 Pigmentation increase [µM]	EC10 STC decrease [µM]	EC10 Yolk sac size Increase [µM]	EC20 Bladder size Decrease [µM]	EC20 Body length Decrease [µM]	EC20 Eye-jaw distance Decrease [µM]	EC20 LMR dark [µM]	EC20 Lack of SB [µM]	EC20 Pericard size Increase [µM]	EC20 Pigmentation increase [µM]	EC20 STC decrease [µM]	EC20 Yolk sac size Increase [µM]	EC50 Bladder size Decrease [µM]	EC50 Body length Decrease [µM]	EC50 Eye-jaw distance Decrease [µM]	EC50 LMR dark [µM]	EC50 Lack of SB [µM]	EC50 Pericard size Increase [µM]	EC50 Yolk sac size Increase [µM]
Danio rerio embryo [2]	–	–	–	–	–	–	–	–	–	–	–	–	–	–	–	–	–	–	–	–	–	–	5.07	–	–
Danio rerio embryo [4]	–	–	–	–	–	–	–	–	–	–	–	–	–	–	–	–	–	–	–	–	–	10.3	–	–	–
Danio rerio embryo [5]	–	–	–	–	–	–	–	–	–	–	–	–	–	–	–	–	–	–	–	40.6	–	–	–	–	–
Danio rerio embryo [6]	–	–	–	–	–	–	–	–	–	–	–	–	–	–	–	–	–	–	5.07	–	–	–	–	–	–
Danio rerio embryo [7]	–	–	–	–	–	–	–	–	–	–	–	–	–	–	–	–	–	–	–	–	–	–	–	20.4	–
Danio rerio embryo [8]	–	–	–	–	–	–	–	–	–	–	–	–	–	–	–	–	–	–	–	–	–	–	–	–	29.2
Danio rerio embryo [9]	–	–	–	–	–	–	–	–	–	–	–	–	–	–	–	–	–	–	–	–	21.5	–	–	–	–
Danio rerio embryo [10]	–	–	–	0.745	–	–	–	–	–	–	–	–	–	–	–	–	–	–	–	–	–	–	–	–	–
Danio rerio embryo [11]	–	–	–	–	–	–	–	–	–	–	–	–	1.96	–	–	–	–	–	–	–	–	–	–	–	–
Danio rerio embryo [13]	–	–	–	–	4.59	–	–	–	–	–	–	–	–	–	–	–	–	–	–	–	–	–	–	–	–
Danio rerio embryo [14]	–	–	–	–	–	–	–	–	–	–	–	–	–	4.76	–	–	–	–	–	–	–	–	–	–	–
Danio rerio embryo [18]	–	–	–	–	–	–	–	3.44	–	–	–	–	–	–	–	–	–	–	–	–	–	–	–	–	–
Danio rerio embryo [19]	–	–	–	–	–	–	–	–	–	–	–	–	–	–	–	–	8.4	–	–	–	–	–	–	–	–
Danio rerio embryo [20]	–	–	–	–	–	–	–	–	–	–	36.3	–	–	–	–	–	–	–	–	–	–	–	–	–	–
Danio rerio embryo [21]	–	34	–	–	–	–	–	–	–	–	–	–	–	–	–	–	–	–	–	–	–	–	–	–	–
Danio rerio embryo [22]	–	–	–	–	–	–	0.889	–	–	–	–	–	–	–	–	–	–	–	–	–	–	–	–	–	–
Danio rerio embryo [23]	4.59	–	–	–	–	–	–	–	–	–	–	–	–	–	–	–	–	–	–	–	–	–	–	–	–
Danio rerio embryo [24]	–	–	–	–	–	–	–	–	–	–	–	–	–	–	–	1.83	–	–	–	–	–	–	–	–	–
Danio rerio embryo [25]	–	–	–	–	–	–	–	–	–	4.76	–	–	–	–	–	–	–	–	–	–	–	–	–	–	–
Danio rerio embryo [26]	–	–	–	–	–	–	–	–	–	–	–	–	–	–	–	–	–	18.7	–	–	–	–	–	–	–
Danio rerio embryo [27]	–	–	–	–	–	–	–	–	–	–	–	–	–	–	17.8	–	–	–	–	–	–	–	–	–	–
Danio rerio embryo [28]	–	–	–	–	–	–	–	–	14.5	–	–	–	–	–	–	–	–	–	–	–	–	–	–	–	–
Danio rerio embryo [29]	–	–	–	–	–	16.5	–	–	–	–	–	–	–	–	–	–	–	–	–	–	–	–	–	–	–
Danio rerio embryo [30]	–	–	–	–	–	–	–	–	–	–	–	18.3	–	–	–	–	–	–	–	–	–	–	–	–	–
Danio rerio embryo [31]	–	–	16.6	–	–	–	–	–	–	–	–	–	–	–	–	–	–	–	–	–	–	–	–	–	–

Settings	EC10 Any effect [µM]	EC10 Heart rate [µM]	EC20 Any effect [µM]	EC20 Heart rate [µM]	EC50 Any effect [µM]	EC50 STC decrease [µM]	spontaneous tail coiling frequency
Danio rerio embryo [1], 0.3 µM	–	–	–	–	–	–	2.44
Danio rerio embryo [1], 3.3 µM	–	–	–	–	–	–	2.01
Danio rerio embryo [1], 13.2 µM	–	–	–	–	–	–	2.12
Danio rerio embryo [1], 16.9 µM	–	–	–	–	–	–	1.32
Danio rerio embryo [1], 19.8 µM	–	–	–	–	–	–	2.06
Danio rerio embryo [1], 29.6 µM	–	–	–	–	–	–	1.39
Danio rerio embryo [1], 33.9 µM	–	–	–	–	–	–	1.27
Danio rerio embryo [1], 44.5 µM	–	–	–	–	–	–	1.1
Danio rerio embryo [1], 66.7 µM	–	–	–	–	–	–	1.79
Danio rerio embryo [1], 67.8 µM	–	–	–	–	–	–	1.17
Danio rerio embryo [1], 100 µM	–	–	–	–	–	–	0.43
Danio rerio embryo [1], 100.1 µM	–	–	–	–	–	–	1.13
Danio rerio embryo [1], 133.4 µM	–	–	–	–	–	–	0.28
Danio rerio embryo [1], 135.6 µM	–	–	–	–	–	–	0
Danio rerio embryo [3], exposure time: 2 dpf	–	–	–	–	50.5	–	–
Danio rerio embryo [3], exposure time: 4 dpf	–	–	–	–	22.1	–	–
Danio rerio embryo [3], exposure time: 25 h	–	–	–	–	–	39	–
Danio rerio embryo [12], exposure time: 2 dpf	–	39.8	–	–	–	–	–
Danio rerio embryo [12], exposure time: 4 dpf	–	9.66	–	–	–	–	–
Danio rerio embryo [15], exposure time: 2 dpf	–	–	36.4	–	–	–	–
Danio rerio embryo [15], exposure time: 4 dpf	–	–	19.1	–	–	–	–
Danio rerio embryo [16], exposure time: 2 dpf	30	–	–	–	–	–	–
Danio rerio embryo [16], exposure time: 4 dpf	17.5	–	–	–	–	–	–
Danio rerio embryo [17], exposure time: 2 dpf	–	–	–	79.7	–	–	–
Danio rerio embryo [17], exposure time: 4 dpf	–	–	–	19.3	–	–	–
